These results are taken from PubChem BioAssay (NCI).

“And” between values parts separate entries of the source, which are not always exact repeats. Identical values can stand only once.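 1) Cells in 96-well plates. 2) Compound, 48 h, 5 concentrations. 3) Linear interpolation between surrounding doses. 4) Unreached endpoint = highest concentration. The concentration for 50% growth inhibition is given as GI50. TGI marks complete inhibition of growth.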 Where only a bound is given, the exact number is not on record here.

Among the test systems are LOX IMVI melanoma; HCT-116 colon; UACC-257 melanoma; SF-295 CNS; NCI-H23 lung; HOP-92 NSCLC; A549 NSCLC; SN12C renal; KM12 colon; SK-MEL-5 melanoma.
Holding throughout (test): NCI anticancer screen, dose series, 48 h

As to `CC1(C)CC23C4COC(=O)C2CCC1C3CC4=O` (stereo not given), the TGI in the assay on LOX IMVI melanoma was 22.6 µM; with HCT-116 colon it was 21.9 µM; in the assay with UACC-257 melanoma it was 26.3 µM; in the assay on SF-295 CNS it was 53.5 µM; in the assay on NCI-H23 lung, 10.8 µM; in the assay with HOP-92 NSCLC it was 29.3 µM. In addition, the TGI in the assay with A549 NSCLC was determined as 70.3 µM; with SN12C renal, 42.5 µM; in the assay with KM12 colon, 27.2 µM; in the assay on SK-MEL-5 melanoma, 32.7 µM.

As to `COC1=C2CC(C)CC(OC)C(O)C(C)/C=C(\C)C(OC(N)=O)C(OC)/C=C\C=C(/C)C(=O)NC(=C(C=NC(C)(C)C)C1=O)C2=O` (stereo not given), the TGI in the assay with LOX IMVI melanoma stood at 22.3 µM; in the assay on HCT-116 colon, 16.2 µM; with UACC-257 melanoma, 17.8 µM; with SF-295 CNS it was 31.7 µM; in the assay on NCI-H23 lung, 5.17 µM; in the assay with HOP-92 NSCLC, 1.35 µM. The TGI turned out to be 37.5 µM in the assay with A549 NSCLC, 21 µM with SN12C renal, 15 µM in the assay on KM12 colon and 15.4 µM in the assay on SK-MEL-5 melanoma.

As to `CC[C@]1(O)C[C@H]2CN(CCc3c([nH]c4ccccc34)[C@@](C(=O)OC)(c3cc4c(cc3OC)N(C=O)[C@H]3[C@@](O)(C(=O)OC)[C@H](OC(C)=O)[C@]5(CC)C=CCN6CC[C@]43[C@@H]65)C2)C1`, the results for the GI50 in the assay with HCT-116 colon and in the assay on NCI-H23 lung were 1.1 nM and less than 1 nM, respectively. Besides, the TGI in the assay with SF-295 CNS is 0.141 µM and 0.536 µM; in the assay on HOP-92 NSCLC, 1.19 µM and 3.07 µM and 6.57 µM.

Take `COc1cc2c(cc1OC)-c1cc3ccccc3c[n+]1CC2`: the TGI in the assay with LOX IMVI melanoma, in the assay with HCT-116 colon, in the assay on UACC-257 melanoma, in the assay with SF-295 CNS, in the assay with NCI-H23 lung and in the assay with HOP-92 NSCLC was more than 100 µM each time. Besides, the TGI in the assay on A549 NSCLC, in the assay with SN12C renal, with KM12 colon and with SK-MEL-5 melanoma was more than 100 µM in each case.

Regarding `O=C1OC(c2ccccc2)=N/C1=C\c1cccnc1`, the TGI in the assay on UACC-257 melanoma, in the assay on SF-295 CNS, in the assay on NCI-H23 lung, in the assay on HOP-92 NSCLC, with A549 NSCLC and in the assay with KM12 colon was more than 100 µM in each case. The TGI in the assay with SK-MEL-5 melanoma is more than 100 µM.

Regarding `CCS(=O)(=O)N1CCC(C(C)n2c(C)c(C(=O)NCc3c(OC)cc(C)[nH]c3=O)c3ccccc32)CC1` (stereo not given), the GI50 in the assay on LOX IMVI melanoma was more than 100000 nM; in the assay on UACC-257 melanoma, more than 100 µM; in the assay on SF-295 CNS, more than 100000 nM; with NCI-H23 lung, more than 100000 nM; in the assay with A549 NSCLC, more than 100000 nM; in the assay with KM12 colon, more than 100 µM. Further, the GI50 in the assay on SK-MEL-5 melanoma is more than 100000 nM. The TGI in the assay with LOX IMVI melanoma, in the assay on UACC-257 melanoma, in the assay with SF-295 CNS, in the assay with NCI-H23 lung, in the assay with A549 NSCLC and with KM12 colon was more than 100 µM each time. In the assay with SK-MEL-5 melanoma, this compound came in with a TGI of more than 100 µM.

With `N/C(=N\N=C/c1ccccc1O)NO`, the TGI in the assay on LOX IMVI melanoma was more than 100 µM; in the assay on HCT-116 colon it was 47.8 µM; in the assay on UACC-257 melanoma, more than 100 µM; in the assay with SF-295 CNS it was more than 34.4 µM; in the assay on NCI-H23 lung, 53.9 µM; with HOP-92 NSCLC it was more than 67.6 µM. Also, the TGI in the assay with A549 NSCLC, with SN12C renal, in the assay on KM12 colon and with SK-MEL-5 melanoma was more than 100 µM throughout.

With `Fc1ccc2[nH]cc(-c3nc(-c4c[nH]c5ncccc45)cs3)c2c1`, the GI50 was more than 100 µM with UACC-257 melanoma, 2650 nM in the assay on A549 NSCLC and 4.65 µM in the assay with KM12 colon. Further, the TGI in the assay on UACC-257 melanoma, in the assay on A549 NSCLC and with KM12 colon was more than 100 µM in each case.

As for `CS(=O)(=O)c1ccc(/C=N/NC(N)=S)cc1`, the TGI in the assay with LOX IMVI melanoma, in the assay on HCT-116 colon, in the assay with UACC-257 melanoma, in the assay on SF-295 CNS, with NCI-H23 lung and with HOP-92 NSCLC was more than 100 µM in each case. Besides, the TGI with A549 NSCLC, in the assay with SN12C renal, in the assay on KM12 colon and in the assay with SK-MEL-5 melanoma was more than 100 µM throughout.

With `O=C1OC[C@@H]2[C@@H](O)CCCCCN12`, the TGI in the assay on LOX IMVI melanoma, in the assay with HCT-116 colon, in the assay on UACC-257 melanoma, in the assay with SF-295 CNS, with HOP-92 NSCLC and in the assay with A549 NSCLC was more than 100 µM throughout. The TGI in the assay on SN12C renal, in the assay with KM12 colon and with SK-MEL-5 melanoma was more than 100 µM each time.

As for `O=C(Nc1cccc(-n2ccc3c(NC(=O)c4ccccc4)nccc32)c1)c1ccc(N2CCOCC2)c(C(F)(F)F)c1`, the GI50 in the assay on LOX IMVI melanoma is 42.7 nM; in the assay on HCT-116 colon, 37.1 nM; in the assay with UACC-257 melanoma, 2.36 µM; in the assay on SF-295 CNS, 30.6 nM; with NCI-H23 lung it was 67.9 nM; in the assay on HOP-92 NSCLC it was 179 nM. Moreover, the GI50 with A549 NSCLC was 51.3 nM; in the assay with SN12C renal, 134 nM; in the assay on KM12 colon it was 0.0364 µM; in the assay on SK-MEL-5 melanoma, 34.9 nM. The TGI was more than 100 µM in the assay with LOX IMVI melanoma; more than 100 µM in the assay on HCT-116 colon; more than 100 µM in the assay with UACC-257 melanoma; 0.49 µM in the assay on SF-295 CNS; more than 90.1 µM with NCI-H23 lung; 6.87 µM in the assay with HOP-92 NSCLC. Further, the TGI in the assay with A549 NSCLC was more than 100 µM; with SN12C renal, more than 100 µM; in the assay with KM12 colon it was 1.36 µM; in the assay with SK-MEL-5 melanoma, 0.169 µM.
